Drawing on patent publication US4880809A, “1,4-disubstituted piperazines (or homopiperazines) as platelet-activating factor antagonists” (Takeda Chemical Industries, Ltd., priority 1987, dated 1989), this text covers inhibition and inhibition in vivo for 28 molecules.

Counter-ions that a name gives are not always drawn.

Test [1] has as its system PAF-Induced Platelet Aggregation. The test is described as follows: Inhibitory Action on PAF-Induced Platelet Aggregation. Particulars: Oryctolagus cuniculus, Drug Concentration: 3 × 10^-5 M, rabbit PRP. Type of test: cell-based, New Zealand white male rabbits.
Procedure: Blood was collected from the hearts of conscious New Zealand white male rabbits weighing 2 to 3 kg using citric acid as an anticoagulant (one volume part of 3.15% citric acid per 9 volume parts of the whole blood). The blood was subjected to a centrifuge at 800 rpm for ten minutes to obtain platelet rich plasma (PRP). The remaining blood after collecting the PRP was subjected to a centrifuge at 3000 rpm for ten minutes to obtain platelet poor plasma (PPP). PRP was diluted with PPP, and the number of platelets was adjusted to 500,000/μl. Platelet aggregation was examined by means of turbidimetry [Born, Nature, 194, 927-929 (1962)] with 8 channel aggregometer (NBS HEMA TRACER 6 Nikoh, Bioscience, Japan). More concretely, PRP (250 μl) was kept warm (37° C.) for three minutes in a silicon-processed cuvette, to which was added a test sample (25 μl) dissolved in a physiological saline or in 10mM dimethylsulfoxide followed by dilution with a physiological saline. Two minutes later, PAF (25 μl, 3×10^-9 -1×10^-8 M), dissolved in a physiological saline, was added and then the maximum aggregation rate was determined. As the control, physiological saline without test sample was added to the cuvette, and the inhibitory rate thereon was determined.
Another test relates to PAF-Induced Hypotension. Kind of test: Inhibitory Action on PAF-Induced Hypotension. Type of test: in vivo, SD (Jcl) male rats. Particulars: po, rat; for inhibition in vivo at 30 mg/kg: 30 mg/kg p.o.; for inhibition in vivo at 3 mg/kg: 3 mg/kg p.o.; for inhibition in vivo at 10 mg/kg: 10 mg/kg p.o. The procedure: SD (Jcl) male rats of 6 to 8 week old were subjected to the experiment. After fasting overnight, the rats were cannulated into the femoral artery and vein under anesthesia with pentobarbital. A transducer (MPU-0.5-290O-III, TOYO BALDWIN, Japan) was connected with the artery cannula, and blood pressure was continuously measured. […] The rate of inhibition of lowering of blood pressure after administration of the test samples against the control was evaluated.

`COc1ccc2c(c1)CCC(C(=O)N1CCN(Cc3cc(OC)c(OC)c(OC)c3)CC1)=C2` [Example 1, 1-(7-methoxy-1,2-dihydro-3-naphthoyl)-4-(3,4,5-trimethoxybenzyl)piperazinehydrochloride] registered an inhibition at 30 µM in test [1] of 100%.
Take `COc1cc2c(cc1OC)CCC(C(=O)N1CCN(Cc3cc(OC)c(OC)c(OC)c3)CC1)=C2` [Example 5, 1-(6,7-dimethoxy-1,2-dihydro-3-naphthoyl)-4-(3,4,5-trimethoxybenzyl)piperazine hydrochloride]: in test [1], the inhibition at 30 µM came out at 100%. Further, the inhibition in vivo at 30 mg/kg in the test on PAF-Induced Hypotension (after 1 hr) was 77%; in the test on PAF-Induced Hypotension (after 2 hrs), 75%; with PAF-Induced Hypotension (after 4 hrs) it was 49%.
`COc1cc(CN2CCN(C(=O)c3ccc4ccccc4c3)CC2)cc(OC)c1OC` [Example 7, 1-(2-naphthoyl)-4-(3,4,5-trimethoxybenzyl)piperazine hydrochloride]: 30 µM produced 95% inhibition in test [1].
In turn, `COc1cc(CN2CCN(C(=O)c3cccc4ccccc34)CC2)cc(OC)c1OC` [Example 8, 1-(1-naphthoyl)-4-(3,4,5-trimethoxybenzyl)piperazine hydrochloride] registered an inhibition at 30 µM in test [1] of 84%.
On the same count and under the same terms, the value for `COc1ccc2cc(C(=O)N3CCN(Cc4cc(OC)c(OC)c(OC)c4)CC3)ccc2c1` [Example 9, 1-(6-methoxy-2-naphthoyl)-4-(3,4,5-trimethoxybenzyl)piperazine hydrochloride] was 87%.
In test [1], `COc1cc(CN2CCN(C(=O)C3=Cc4cc(OC)c(OC)c(OC)c4CC3)CC2)cc(OC)c1OC` [Example 10, 1-(6,7,8-trimethoxy-1,2-dihydro-3-naphthoyl)-4-(3,4,5-trimethoxybenzyl)piperazine hydrochloride] had an inhibition at 30 µM of 87%.
Molecule `COc1cc(CN2CCN(C(=O)c3ccc4c(OC)c(OC)c(OC)cc4c3)CC2)cc(OC)c1OC` [Example 12, 1-(3,4,5-trimethoxybenzyl)-4-(5,6,7-trimethoxy)-2-naphthoyl)piperazine hydrochloride] displayed an inhibition at 30 µM in test [1] of 100%.
Regarding `CCCCOc1ccc2c(c1)CCC(C(=O)N1CCN(Cc3cc(OC)c(OC)c(OC)c3)CC1)=C2` [Example 15, 1-(7-butoxy-1,2-dihydro-3-naphthoyl)-4-(3,4,5-trimethoxybenzyl)piperazine hydrochloride], testing at 30 µM in test [1] gave an inhibition of 100%.
Same read-out and setting: the value for `CCCCOc1ccc2cc(C(=O)N3CCN(Cc4cc(OC)c(OC)c(OC)c4)CC3)ccc2c1` [Example 17, 1-(6-butoxy-2-naphthoyl)-4(3,4,5-trimethoxybenzyl)piperazine hydrochloride] was 97%; that for `COc1cc2ccc(C(=O)N3CCN(Cc4cc(OC)c(OC)c(OC)c4)CC3)cc2cc1OC` [Example 21, 1-(6,7-dimethoxy-2-naphthoyl)-4-(3,4,5-trimethoxybenzyl)piperazinehydrochloride] was 93%.
Same read-out and setting: the value for `CCCCOc1cc2ccc(C(=O)N3CCN(Cc4cc(OC)c(OC)c(OC)c4)CC3)cc2cc1OCCCC` [Example 23, 1-(6,7-dibutoxy-2-naphthoyl)-4-(3,4,5-trimethoxybenzyl)piperazine hydrochloride] was 100%; that for `COc1cc2ccccc2cc1C(=O)N1CCN(Cc2cc(OC)c(OC)c(OC)c2)CC1` [Example 24, 1-(3-methoxy-2-napththoyl)-4-(3,4,5-trimethoxybenzyl)piperazine hydrochloride] was 100%; that for `COc1cc(CN2CCN(C(=O)c3ccc4c(c3)C(=O)c3ccccc3C4=O)CC2)cc(OC)c1OC` [Example 26, 1-(2-anthraquinonylcarbonyl)-4-(3,4,5-trimethoxybenzyl)piperazine] was 91%.
Molecule `COc1cc(CN2CCN(C(=O)C3=Cc4cc(OCc5ccccc5)c(OCc5ccccc5)cc4CC3)CC2)cc(OC)c1OC` [Example 28, 1-(6,7-dibenzyloxy-1,2-dihydro-3-naphthoyl)-4-(3,4,5-trimethoxybenzyl)piperazine hydrochloride] showed an inhibition at 30 µM in test [1] of 87%.
Same read-out and setting: the value for `COc1cc(CN2CCN(C(=O)C3=Cc4ccc(OCc5ccccc5)cc4CC3)CC2)cc(OC)c1OC` [Example 32, 1-(7-benzyloxy-1,2-dihydro-3-naphthoyl)-4-(3,4,5-trimethoxybenzyl)piperazine hydrochloride] was 100%.
Still for that read-out and setting: the value for `COc1cc(CN2CCN(C(=O)C3=Cc4cc(OC(C)=O)c(OC(C)=O)cc4CC3)CC2)cc(OC)c1OC` [Example 36, 1-(6,7-diacetyloxy-1,2-dihydro-3-naphthoyl)-4-(3,4,5-trimethoxybenzyl)piperazine fumarate] was 86%; that for `COc1cc(CN2CCN(C(=O)c3ccc4c(c3)C(=O)c3ccccc3-4)CC2)cc(OC)c1OC` [Example 38, 1-(9-oxo-2-fluorenylcarbonyl)-4-(3,4,5-trimethoxybenzyl)piperazine] was 85%.
The molecule `COc1cc(CN2CCN(C(=O)c3ccc4c(c3)C(O)c3ccccc3-4)CC2)cc(OC)c1OC` (stereo not drawn) [Example 39, 1-(9-hydroxy-2-fluorenylcarbonyl)-4-(3,4,5-trimethoxybenzyl)piperazine hydrochloride] yielded an inhibition at 30 µM in test [1] of 100%. For the same molecule, the values for the inhibition in vivo at 30 mg/kg in the test with PAF-Induced Hypotension (after 1 hr), in the test on PAF-Induced Hypotension (after 2 hrs) and in the test on PAF-Induced Hypotension (after 4 hrs) were 70%, 64% and 47%, respectively.
As to `COc1cc2ccc(C(=O)N3CCN(Cc4cc(OC)c(OC)c(OC)c4)CC3)c(O)c2cc1OC` [Example 41, 1-(6,7-dimethoxy-1-hydroxy-2-naphthoyl)-4-(3,4,5-trimethoxybenzyl)piperazine hydrochloride], 30 µM produced 97% inhibition in test [1].
Consider `COc1cc(CN2CCN(C(=O)C3=Cc4ccc(OC)c(OC)c4CCC3)CC2)cc(OC)c1OC` [Example 43, 1-(3,4-dimethoxy-6,7-dihydro-5H-benzocyclohepten-8-ylcarbonyl)-4-(3,4,5-trimethoxybenzyl)piperazine hydrochloride], for which, in test [1], the inhibition at 30 µM worked out at 89%.
Consider `COc1cc2c(cc1OC)CCCC(C(=O)N1CCN(Cc3cc(OC)c(OC)c(OC)c3)CC1)=C2` [Example 49, 1-(2,3-dimethoxy-6,7-dihydro-5H-benzocyclohepten-8-ylcarbonyl)-4-(3,4,5-trimethoxybenzyl)piperazine hydrochloride], for which the inhibition at 30 µM in test [1] is 100%. The values for the inhibition in vivo at 30 mg/kg in the test with PAF-Induced Hypotension (after 1 hr), with PAF-Induced Hypotension (after 2 hrs) and in the test with PAF-Induced Hypotension (after 4 hrs) were 94%, 97% and 88%, respectively.
On to `COc1cc2c(cc1OC)CC(C(=O)N1CCN(C(=O)c3cc(OC)c(OC)c(OC)c3)CC1)=C2` [Example 61, 1-(5,6-dimethoxy-1-H-inden-2-ylcarbonyl)-4-(3,4,5-trimethoxybenzoyl)piperazine], for which the results for the inhibition in vivo at 30 mg/kg in the test with PAF-Induced Hypotension (after 1 hr), in the test with PAF-Induced Hypotension (after 2 hrs) and in the test on PAF-Induced Hypotension (after 4 hrs) were 86%, 82% and 74%, respectively.
For `CCOc1cc2c(cc1OCC)CCCC(C(=O)N1CCN(C(=O)c3cc(OC)c(OC)c(OC)c3)CC1)=C2` [Example 73, 1-(2,3-diethoxy-6,7-dihydro-5H-benzocyclohepten-8-ylcarbonyl)-4-(3,4,5-trimethoxybenzoyl)piperazine] the same measures were 98%, 98% and 96%.
As for `CCOc1c(OC)cc(C(=O)N2CCN(C(=O)C3=Cc4cc(OC)c(OC)cc4CCC3)CC2)cc1OC` [Example 75, 1-(2,3-dimethoxy-6,7-dihydro-5H-benzocyclohepten-8-ylcarbonyl)-4-(3,5-dimethoxy-4-ethoxy-benzoyl)piperazine], the inhibition in vivo at 30 mg/kg in the test on PAF-Induced Hypotension (after 1 hr) worked out at 61%; with PAF-Induced Hypotension (after 2 hrs) it was 54%; in the test on PAF-Induced Hypotension (after 4 hrs), 61%.
As to `COc1cc2c(cc1OC)CCCC(C(=O)N1CCN(C(=S)c3cc(OC)c(OC)c(OC)c3)CC1)=C2` [Example 76, 1-(2,3-dimethoxy-6,7-dihydro-5H-benzocyclohepten-8-ylcarbonyl)-4-(3,4,5-trimethoxythiobenzoyl)piperazine], the inhibition in vivo at 3 mg/kg in the test with PAF-Induced Hypotension (after 1 hr) is 72%; with PAF-Induced Hypotension (after 2 hrs), 69%; with PAF-Induced Hypotension (after 4 hrs) it was 60%. Also, the inhibition in vivo at 30 mg/kg in the test on PAF-Induced Hypotension (after 1 hr), in the test on PAF-Induced Hypotension (after 2 hrs) and in the test on PAF-Induced Hypotension (after 4 hrs) was 100% each time.
Regarding `COc1cc(C(=O)N2CCN(C(=O)C3=Cc4ccc(OC)c(OC)c4CCC3)CC2)cc(OC)c1OC` [Example 78, 1-(3,4-dimethoxy-6,7-dihydro-5H-benzocyclohepten-8-ylcarbonyl)-4-(3,4,5-trimethoxybenzoyl)piperazine], the figures for the inhibition in vivo at 30 mg/kg in the test with PAF-Induced Hypotension (after 1 hr), in the test with PAF-Induced Hypotension (after 2 hrs) and in the test on PAF-Induced Hypotension (after 4 hrs) were 73%, 57% and 26%, respectively.
With `COc1cc2c(cc1OC)CC(C(=O)N1CCN(C(=O)c3cc(OC)c(OC)c(OC)c3)CC1)CC2` (stereo not drawn) [Example 79], the inhibition in vivo at 30 mg/kg is 81% in the test with PAF-Induced Hypotension (after 1 hr), 88% with PAF-Induced Hypotension (after 2 hrs) and 66% in the test with PAF-Induced Hypotension (after 4 hrs).
For the molecule `COc1cc2c(cc1OC)CC(C(=O)N1CCN(C(=O)c3cc(OC)c(OC)c(OC)c3)CC1)CCC2` (stereo not drawn) [Example 86, 1-(2,3-dimethoxy-5,6,7,8-tetrahydrobenzocyclohepten-6-ylcarbonyl)-4-(3,4,5-trimethoxy-benzoyl)piperazine], the values for the inhibition in vivo at 10 mg/kg in the test on PAF-Induced Hypotension (after 1 hr), with PAF-Induced Hypotension (after 2 hrs) and with PAF-Induced Hypotension (after 4 hrs) were 90%, 92% and 92%, respectively. In addition, the inhibition in vivo at 30 mg/kg with PAF-Induced Hypotension (after 1 hr), with PAF-Induced Hypotension (after 2 hrs) and in the test with PAF-Induced Hypotension (after 4 hrs) was 100% each time.
